In patent publication US7825110B2, “Substituted spiroheterocycles” (Janssen Pharmaceutica NV, priority 2006, dated 2010):

Key:
human V1a receptor [1] = target: T1, human V1a receptor (Homo sapiens, UniProt P37288); assay: In-vitro binding assay, 3H-arginine-8-vasopressin, V1a; conditions: for IC50: membrane containing human V1a receptor, displacement of H3 vasopressin; for inhibition at 0.2 µM: 0.2 μM test compound, read-out: V1a (binding), Percent inhibition at 0.2 μM
Protocol: (§1) Assay buffer is 50 mM Tris-Cl, 5 mM MgCl2, 0.1% BSA (pH 7.5) containing 5 μg/ml of aprotinin, leupeptin, pepstatin, 50 μg/ml bacitracin, and 1 mM Pefabloc (4-(2-Aminoethyl)-benzenesulfonyl fluoride, hydrochloride manufactured by Roche Diagnostics Corporation, Indianapolis, Ind. and distributed by Boehringer Mannheim). H3 vasopressin is ^3H-arginine-8-vasopressin (NEN Life Sciences, Boston, Mass.; 68.5 Ci/mmol, final concentration in assay is 0.65-0.75 nM). Into wells of 96-well round bottom polypropylene plates are added buffer, test compound, membrane (containing human V1a or V2 receptor), and H3 vasopressin. The reaction plates are allowed to sit at room temperature for one hour. The samples are filtered through Unifilter GF/C plates (PerkinElmer Life Sciences, Boston, Mass.) presoaked in […]. The plates are washed 5 times with cold physiological saline containing 0.05% Tween 20. After drying, the bottom of the filter plates
(§2) [formula] are sealed and 0.025 ml of Microscint-20 (Packard Instrument Co, Meriden, Conn.) is added to each filter. The top of the plate is sealed, and the plate is counted. Non-specific binding is determined by the addition of 1.25 μM arginine-8-vasopressin in those wells. % Inh. is calculated as follows: […]

human V2 receptor [2] = target: T2, human V2 receptor (Homo sapiens, UniProt P30518); assay: In-vitro binding assay, 3H-arginine-8-vasopressin, V2; conditions: for inhibition at 0.2 µM: 0.2 μM test compound, read-out: V2 (binding), Percent inhibition at 0.2 μM; for IC50: membrane containing human V2 receptor, displacement of H3 vasopressin
Protocol: as §1, §2

human V1a receptor [3] = target: T1, human V1a receptor; assay: V1a vasopressin receptor functional activity (intracellular calcium mobilization, FLIPR, V1a-HEK cells); format: cell-based; conditions: antagonism of vasopressin-induced calcium mobilization in V1a-HEK cells
Protocol: The V1a receptor is a G-protein coupled receptor, which upon activation triggers an increase in intracellular calcium mobilization. To evaluate compounds for their functional V1a receptor activity, HEK-293 cells were transfected with the human V1a receptor (V1a-HEK cells). HEK-293 cells were grown in DMEM (Dulbecco's modified Eagle Media) supplemented with 10% FBS and glutamine. HEK-cells were passed biweekly by trypsinization and seeded into 96 well plates at 33,000 cells per well. HEK-293 cells were transfected with human V1a receptor DNA using DMRIE-C reagent from Life Technologies (Carlsbad, Calif.). Stable lines were generated by selecting cells grown in culture media containing geneticin. After growing in Packard Clear-View black 96 well plates for 4-6 days, V1a-HEK cells were loaded with the calcium-sensitive fluorescence dye, FLUO-3 AM. Changes in intracellular calcium mobilization were measured by quantitating intracellular fluorescence using FLIPR (Fluorometric Imaging Plate Reader; Molecular Devices, Sunnyvale, Calif.). Test compounds were first added to the cells and the resulting changes in fluorescence measured to detect receptor agonistic activity. Five minutes later the cells were challenged with vasopressin to test compounds for their antagonistic activity. Receptor antagonists inhibit the ability of vasopressin to stimulate increases in intracellular fluorescence. IC50's were calculated.

human V2 receptor [4] = target: T2, human V2 receptor; assay: V2 vasopressin receptor functional activity (cAMP accumulation, V2-HEK cells); format: cell-based; set-up: expressed in transfected cells; host or cells: HEK-293; conditions: block of vasopressin-stimulated cAMP accumulation in V2-HEK cells
Protocol: The V2 receptor is also a G-protein coupled receptor which when activated induces an increase in cAMP turnover. Antagonism against the V2 receptor is determined by measuring cAMP accumulation in transfected HEK-293 cells expressing the human V-2 receptor (V2-HEK cells). Compounds are tested for their ability to block the stimulatory effects of vasopressin on cAMP accumulation. The cell content of cAMP is measured by radioimmunoassay using NEN flashplates.

T1 sequence (P37288 whole entry): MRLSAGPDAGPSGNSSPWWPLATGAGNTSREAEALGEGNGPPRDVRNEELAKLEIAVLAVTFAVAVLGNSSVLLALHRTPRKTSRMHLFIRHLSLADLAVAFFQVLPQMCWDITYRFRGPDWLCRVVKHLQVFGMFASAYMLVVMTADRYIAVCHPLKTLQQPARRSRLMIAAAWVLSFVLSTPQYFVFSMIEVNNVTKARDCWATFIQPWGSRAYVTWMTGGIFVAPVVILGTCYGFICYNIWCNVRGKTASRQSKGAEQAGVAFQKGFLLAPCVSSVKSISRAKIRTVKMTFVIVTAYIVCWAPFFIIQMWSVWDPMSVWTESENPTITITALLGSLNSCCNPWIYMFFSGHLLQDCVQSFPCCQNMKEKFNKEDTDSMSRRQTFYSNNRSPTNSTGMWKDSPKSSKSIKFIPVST
T2 sequence (P30518 whole entry): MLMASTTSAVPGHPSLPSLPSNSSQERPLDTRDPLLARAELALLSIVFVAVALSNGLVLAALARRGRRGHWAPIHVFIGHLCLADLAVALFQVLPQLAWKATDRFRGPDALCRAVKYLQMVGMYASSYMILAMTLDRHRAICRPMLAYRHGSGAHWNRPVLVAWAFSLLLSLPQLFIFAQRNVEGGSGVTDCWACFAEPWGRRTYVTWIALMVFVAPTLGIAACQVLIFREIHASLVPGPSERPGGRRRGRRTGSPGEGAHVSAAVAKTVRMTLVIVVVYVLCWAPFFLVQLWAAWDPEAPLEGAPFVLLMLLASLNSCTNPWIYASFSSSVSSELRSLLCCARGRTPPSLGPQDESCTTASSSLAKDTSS

IC50 (human V1a receptor [1])	inhibition at 0.2 µM (human V2 receptor [2])	IC50 (human V1a receptor [3])	IC50 (human V2 receptor [4])	IC50 (human V2 receptor [2])	inhibition at 0.2 µM (human V1a receptor [1])	SMILES
12 nM	52%	0.01 µM	0.46 µM			CN1CCCC2(CCN(C(=O)c3ccc(NC(=O)c4cc(F)ccc4Cl)cc3)c3ccccc3C2)C1 (centres unmarked) [Compound 8, Benzamide, 2-chloro-N-[4-{(2,3-dihydro-1′-methyl-spiro[4H-1-benzazepine-4,3-piperidin}-1(5H)-yl)carbonyl}phenyl]-5-fluoro]
15 nM		0.08 µM	0.064 µM	29 nM		CN1CCCC2(CCN(C(=O)c3ccc(NC(=O)c4ccccc4-c4ccccc4)cc3)c3ccccc3C2)C1 (centres unmarked) [Compound 10, [1,1′-Biphenyl]-2-carboxamide, N-[4-[(2,3-dihydro-1′-methyl-spiro{4H-1-benzazepine-4,3′-piperidin}-1(5H)-yl)carbonyl]phenyl}-]
	70%				66%	O=C(Nc1ccc(C(=O)N2CCC3(CCN(C4CCCC4)C3)Cc3ccccc32)cc1)c1ccccc1-c1ccccc1 (centres unmarked) [Compound 18]
		0.4 µM	0.049 µM	110 nM	66%	COC(=O)CN1CCC2(CCN(C(=O)c3ccc(NC(=O)c4ccccc4-c4ccccc4)cc3)c3ccccc3C2)C1 (centres unmarked) [Compound 22, [1,1′-Biphenyl]-2-carboxamide, N-[4-[(2,3-dihydro-1′-acetic acid-spiro{4H-1-benzazepine-4,3′-pyrrolidin}-1(5H)-yl)carbonyl]phenyl}-, methyl ester]
	58%	0.78 µM	0.673 µM		75%	CCOC(=O)CN1CCC2(CCN(C(=O)c3ccc(NC(=O)c4ccccc4-c4ccccc4)cc3)c3ccccc3C2)C1 (centres unmarked) [Compound 23, [1,1′-Biphenyl]-2-carboxamide, N-[4-[(2,3-dihydro-1′-acetic acid-spiro{4H-1-benzazepine-4,3′-pyrrolidin}-1(5H)-yl)carbonyl]phenyl}-, ethyl ester]
	77%		0.306 µM		35%	CCOC(=O)CC(=O)N1CCC2(CCN(C(=O)c3ccc(NC(=O)c4ccccc4-c4ccccc4)cc3)c3ccccc3C2)C1 (centres unmarked) [Compound 25, [1,1′-Biphenyl]-2-carboxamide, N-[4-[(2,3-dihydro-1′-pyruvic acid-spiro{4H-1-benzazepine-4,3′-pyrrolidin}-1(5H)-yl)carbonyl]phenyl}-, ethyl ester]
	83%		0.272 µM		23%	O=C(O)CC(=O)N1CCC2(CCN(C(=O)c3ccc(NC(=O)c4ccccc4-c4ccccc4)cc3)c3ccccc3C2)C1 (centres unmarked) [Compound 26]
	78%	0.21 µM	0.182 µM		61%	CC(=O)N1CCC2(CCN(C(=O)c3ccc(NC(=O)c4ccccc4-c4ccccc4)cc3)c3ccccc3C2)C1 (centres unmarked) [Compound 27, [1,1′-Biphenyl]-2-carboxamide, N-[4-[(2,3-dihydro-1′-acetyl-spiro{4H-1-benzazepine-4,3′-pyrrolidin}-1(5H)-yl)carbonyl]phenyl}-]
260 nM						CN(C)CC(=O)N1CCC2(CCN(C(=O)c3ccc(NC(=O)c4ccccc4-c4ccccc4)cc3)c3ccccc3C2)C1 (centres unmarked) [Compound 28, [1,1′-Biphenyl]-2-carboxamide, N-[4-[(2,3-dihydro-(1′-(2-(dimethylamino)acetyl))spiro{4H-1-benzazepine-4,3′-pyrrolidin}-1(5H)-yl)carbonyl]phenyl]-;]
